According to patent US9624280B2 (JANSSEN BIOTECH, INC., priority 2013, dated 2017):
“Also recorded” adds a separate entry of the source. Where two headings read alike, the source gives them in different places. No end group written: not given here.

How the values were obtained:
human Nav1.6 = biological target: T1, human Nav1.6 (Homo sapiens, UniProt Q9UQD0); type: cell-based
T1 construct: expressed in transfected cells

human Nav1.5 = human Nav1.5 (Homo sapiens, UniProt Q14524)
rodent = conditions: Schmalhofer et al. 2008; cited from earlier work
isolated nerves = conditions: unless the perineural barrier is compromised; Hackel et al. 2012; cited from earlier work
C57Bl/6 mice [1] = conditions: mouse, in vivo
C57Bl/6 mice [2] = test: CFA model, tactile allodynia (Von Frey test); type: in vivo
Description: (§1) Male C57Bl/6 mice (24-26 g), ordered from Charles River and housed individually, were used for this study.
7 graded stimuli (von Frey filaments: 0.03, 0.07, 0.16, 0.4, 0.6, 1, 2 g; Stoelting, Wood Dale, Ill.) were used. Von Frey hairs were presented perpendicularly against the center plantar area (between toris) on a hindpaw. Sufficient force was applied to bend the filament slightly and held for 3 seconds. Per the Chaplan paper, a positive response can be either 1) a sharp withdrawal or 2) immediate flinching upon removal of the filament. See Chaplan et al for more details. Mice were acclimated to the wire mesh in the testing chamber for 30-60 minutes prior to testing.
(§2) Percent maximum possible effect (MPE %)=(T1−T0)/(Tc−T0)×100%. T0: threshold on day0 (post-CFA, pre-pump); T1: threshold on day1 post pump implantation; Tc: cut-off of the test (20 s for the Hargreaves test and 2 g for the Von Frey test)
(§3) Animals were anesthetized with isoflurane (4% induction and 2% maintenance) and 20 μL of 100% Complete Freund's Adjuvant (CFA; Sigma-Aldrich; Saint Louis, Mo.) was injected into the center plantar area on one hind paw using a 27 gauge needle attached to a 50 μL Hamilton syringe. Carrageenan model: Animals were anesthetized with isoflurane (4% induction and 2% maintenance) and 25 μL of 2% A-carrageenan (Sigma-Aldrich; Saint Louis, Mo.) dissolved in normal saline was injected into the center plantar area on hind paws using an insulin syringe (BD; Franklin Lakes, N.J.).
Alzet micro-osmotic mini pumps (Durect Corporation Model 1003D and 2001D) were filled and primed per manufacturer's guide. Mice were anesthetized with isoflurane (5% induction; 2% maintenance). Their backs were shaved, wiped down with isopropyl alcohol and povidone iodine, and a small incision was made between the scapulae. Using a pair of forceps or hemostat, a small pocket was formed by spreading the subcutaneous connective tissues apart. […]
Data are represented as mean±s.e.m. […] Hotplate and MPE % data were analyzed by one-way ANOVA followed by Bonferroni's multiple comparison test.

C57Bl/6 mice [3] = test: CFA model of inflammatory pain, thermal hyperalgesia (Hargreaves test); type: in vivo; conditions: for Thermal MPE %: CFA model, mice, mean±s.e.m. (n)
Description: as §1
This box consists of a chamber with a raised glass floor maintained at a constant temperature (27° C.). The thermal nociceptive stimulus originates from a projection bulb light beam below the glass surface. The light beam is aimed at the area between toris (center plantar). The “start” button will turn on the light and start the timer. Movements (such as a sudden withdrawal) of the stimulated paw will trigger the switch to turn off the light and stop the timer. […] If no movement occurs, the bulb will be turned off after 20 seconds (cutoff) to prevent tissue injury. The animals were allowed to habituate on the glass surface for 30-60 minutes before PWL measurement.
as §2, §3
(§4) Alzet micro-osmotic mini pumps (Durect Corporation Model 1003D and 2001D) were filled and primed per manufacturer's guide. Mice were anesthetized with isoflurane (5% induction; 2% maintenance). Their backs were shaved, wiped down with isopropyl alcohol and povidone iodine, and a small incision was made between the scapulae. Using a pair of forceps or hemostat, a small pocket was formed by spreading the subcutaneous connective tissues apart. The pump was inserted into the pocket with the flow moderator pointing away from the incision. The skin incision was then closed using 7 mm staples and the animals were allowed to recover in their home cages.
(§5) Data are represented as mean±s.e.m. Prism (Graphpad Software Inc., La Jolla, Calif.) was used for graphing and statistical analysis. For comparison of threshold values over time, a two-way ANOVA followed by Bonferroni's multiple comparison test was used with a significance level of p<0.05. Hotplate and MPE % data were analyzed by one-way ANOVA followed by Bonferroni's multiple comparison test.

C57Bl/6 mice [4] = test: Hotplate test; type: in vivo
Description: as §1
Animals were placed on a 10″×10″ metal plate surrounded by 4 Plexiglas walls (15 inches high). The plate was maintained at a temperature of either 50 or 55° C. The response latency (time when the animal first flinches or licks its hind paw, jumps, or vocalizes) was measured and the animal removed from the plate. Animals showing no response were removed from the plate after 40 s (50° C.) or 20 s (55° C.) to prevent any possible tissue damage. This trial was repeated 2-5 times every 15-60 minutes in a day.
as §4, §5

T1 sequence (Q9UQD0 whole entry): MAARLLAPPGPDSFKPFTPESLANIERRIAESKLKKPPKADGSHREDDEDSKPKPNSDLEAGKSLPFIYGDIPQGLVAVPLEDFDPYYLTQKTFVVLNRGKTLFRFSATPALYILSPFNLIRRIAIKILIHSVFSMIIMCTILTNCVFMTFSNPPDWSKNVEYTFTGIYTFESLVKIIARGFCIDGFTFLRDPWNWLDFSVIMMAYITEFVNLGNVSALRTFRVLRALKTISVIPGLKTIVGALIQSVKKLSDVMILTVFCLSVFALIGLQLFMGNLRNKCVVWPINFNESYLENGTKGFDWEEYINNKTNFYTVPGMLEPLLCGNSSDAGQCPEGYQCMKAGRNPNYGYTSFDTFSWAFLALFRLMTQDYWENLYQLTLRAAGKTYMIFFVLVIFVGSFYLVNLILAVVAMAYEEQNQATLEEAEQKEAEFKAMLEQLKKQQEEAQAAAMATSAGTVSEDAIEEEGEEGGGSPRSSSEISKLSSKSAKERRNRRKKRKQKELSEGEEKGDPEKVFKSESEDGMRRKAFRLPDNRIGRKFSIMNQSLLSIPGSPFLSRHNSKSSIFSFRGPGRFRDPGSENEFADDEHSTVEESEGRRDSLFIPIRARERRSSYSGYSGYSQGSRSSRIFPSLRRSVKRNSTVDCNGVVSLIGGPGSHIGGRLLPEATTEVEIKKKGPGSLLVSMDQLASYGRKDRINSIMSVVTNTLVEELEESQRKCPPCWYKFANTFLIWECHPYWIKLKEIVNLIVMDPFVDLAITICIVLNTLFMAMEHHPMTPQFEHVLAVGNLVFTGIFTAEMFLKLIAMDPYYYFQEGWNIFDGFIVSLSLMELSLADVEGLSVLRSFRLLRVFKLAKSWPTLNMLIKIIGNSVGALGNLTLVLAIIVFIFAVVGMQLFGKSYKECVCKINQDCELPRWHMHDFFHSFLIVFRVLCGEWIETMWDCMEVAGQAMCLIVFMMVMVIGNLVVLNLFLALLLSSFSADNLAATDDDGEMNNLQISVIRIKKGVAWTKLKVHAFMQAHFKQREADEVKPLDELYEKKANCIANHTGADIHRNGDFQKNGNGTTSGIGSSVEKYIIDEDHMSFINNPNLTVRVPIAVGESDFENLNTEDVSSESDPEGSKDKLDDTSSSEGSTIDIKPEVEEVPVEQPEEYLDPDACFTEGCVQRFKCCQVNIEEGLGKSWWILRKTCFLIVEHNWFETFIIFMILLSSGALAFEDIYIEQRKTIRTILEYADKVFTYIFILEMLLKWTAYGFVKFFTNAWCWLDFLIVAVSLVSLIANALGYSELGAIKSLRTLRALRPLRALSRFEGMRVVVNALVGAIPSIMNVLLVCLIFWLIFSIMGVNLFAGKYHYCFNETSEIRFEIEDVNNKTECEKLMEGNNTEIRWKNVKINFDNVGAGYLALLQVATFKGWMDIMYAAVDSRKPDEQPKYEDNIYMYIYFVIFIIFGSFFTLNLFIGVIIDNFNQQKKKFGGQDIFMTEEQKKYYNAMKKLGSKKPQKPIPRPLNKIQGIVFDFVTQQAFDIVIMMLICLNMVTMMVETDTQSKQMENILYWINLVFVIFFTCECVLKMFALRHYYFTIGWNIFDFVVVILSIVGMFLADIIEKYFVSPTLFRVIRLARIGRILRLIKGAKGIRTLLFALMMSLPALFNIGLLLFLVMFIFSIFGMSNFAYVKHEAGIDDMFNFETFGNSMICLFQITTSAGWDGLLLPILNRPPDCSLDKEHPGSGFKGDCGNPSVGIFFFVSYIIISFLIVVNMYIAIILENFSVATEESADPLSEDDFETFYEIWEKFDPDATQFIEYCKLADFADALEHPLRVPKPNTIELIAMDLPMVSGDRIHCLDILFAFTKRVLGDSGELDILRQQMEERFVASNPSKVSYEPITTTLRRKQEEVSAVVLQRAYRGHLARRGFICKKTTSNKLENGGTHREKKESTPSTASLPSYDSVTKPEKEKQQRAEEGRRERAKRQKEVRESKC
human Nav1.5, sequence (Q14524 whole entry): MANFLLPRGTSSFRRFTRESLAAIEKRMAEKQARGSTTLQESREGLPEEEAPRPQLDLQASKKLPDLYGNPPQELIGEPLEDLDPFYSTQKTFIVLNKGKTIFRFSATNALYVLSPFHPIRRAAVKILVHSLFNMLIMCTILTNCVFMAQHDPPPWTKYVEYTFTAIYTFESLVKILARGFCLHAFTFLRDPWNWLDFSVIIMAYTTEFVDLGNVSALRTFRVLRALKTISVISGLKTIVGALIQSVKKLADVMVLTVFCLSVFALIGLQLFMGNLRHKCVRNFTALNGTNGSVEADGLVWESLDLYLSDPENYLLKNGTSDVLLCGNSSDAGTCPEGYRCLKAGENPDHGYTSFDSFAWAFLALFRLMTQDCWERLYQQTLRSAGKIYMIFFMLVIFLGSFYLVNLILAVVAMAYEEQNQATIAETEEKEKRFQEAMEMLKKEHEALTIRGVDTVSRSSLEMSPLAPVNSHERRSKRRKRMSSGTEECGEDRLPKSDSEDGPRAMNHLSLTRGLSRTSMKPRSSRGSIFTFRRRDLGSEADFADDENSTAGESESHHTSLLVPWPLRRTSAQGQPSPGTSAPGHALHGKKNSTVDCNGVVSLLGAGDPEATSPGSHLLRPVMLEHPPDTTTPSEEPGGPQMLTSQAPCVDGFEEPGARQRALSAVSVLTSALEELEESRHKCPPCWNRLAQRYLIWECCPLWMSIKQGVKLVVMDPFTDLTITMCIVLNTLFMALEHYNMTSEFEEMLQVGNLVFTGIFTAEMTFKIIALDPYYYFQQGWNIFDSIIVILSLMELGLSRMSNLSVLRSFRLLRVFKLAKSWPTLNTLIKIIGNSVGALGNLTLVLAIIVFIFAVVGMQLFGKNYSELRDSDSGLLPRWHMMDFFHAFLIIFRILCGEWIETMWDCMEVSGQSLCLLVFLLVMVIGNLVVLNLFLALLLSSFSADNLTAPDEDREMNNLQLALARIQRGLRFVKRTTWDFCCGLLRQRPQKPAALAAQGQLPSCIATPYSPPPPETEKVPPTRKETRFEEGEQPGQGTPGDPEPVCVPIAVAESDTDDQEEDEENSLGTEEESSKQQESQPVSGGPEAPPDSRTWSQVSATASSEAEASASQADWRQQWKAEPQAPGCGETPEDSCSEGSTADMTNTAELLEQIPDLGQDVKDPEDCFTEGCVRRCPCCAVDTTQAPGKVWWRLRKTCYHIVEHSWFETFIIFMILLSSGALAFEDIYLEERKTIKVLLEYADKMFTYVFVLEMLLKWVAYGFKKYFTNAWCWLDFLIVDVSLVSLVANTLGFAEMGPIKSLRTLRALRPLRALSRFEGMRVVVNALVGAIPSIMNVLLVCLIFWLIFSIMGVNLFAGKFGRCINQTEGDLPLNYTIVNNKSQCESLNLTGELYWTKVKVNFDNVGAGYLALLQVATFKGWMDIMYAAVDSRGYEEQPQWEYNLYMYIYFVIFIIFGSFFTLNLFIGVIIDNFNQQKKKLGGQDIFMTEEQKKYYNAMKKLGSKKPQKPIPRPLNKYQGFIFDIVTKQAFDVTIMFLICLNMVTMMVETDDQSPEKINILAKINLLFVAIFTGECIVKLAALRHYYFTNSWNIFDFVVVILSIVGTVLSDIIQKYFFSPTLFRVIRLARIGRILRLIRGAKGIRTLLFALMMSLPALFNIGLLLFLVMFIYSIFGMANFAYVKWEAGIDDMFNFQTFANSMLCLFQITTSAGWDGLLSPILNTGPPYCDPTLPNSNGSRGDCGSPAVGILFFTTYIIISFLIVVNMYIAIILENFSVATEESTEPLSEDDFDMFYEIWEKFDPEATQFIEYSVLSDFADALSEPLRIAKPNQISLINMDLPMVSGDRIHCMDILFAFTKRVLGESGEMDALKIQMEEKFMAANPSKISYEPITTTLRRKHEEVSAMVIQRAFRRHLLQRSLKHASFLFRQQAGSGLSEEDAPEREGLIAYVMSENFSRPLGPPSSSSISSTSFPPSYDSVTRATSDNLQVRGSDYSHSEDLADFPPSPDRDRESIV

GPYCQKWMWTCDSERKCCEGMVCRLWCKKKLW-COOH [NV1D12, reference compound]
IC50 (human Nav1.6; read-out: IC50 for Nav1.6, QPatch electrophysiology assay): ~0.062 µM | IC50 (human Nav1.5): > 1 µM

YCQKWMWTCDSERKCCEGMVCRLWCKKKLW-COOH [wild type Protoxin-II]
efficacy in rodent models of acute and inflammatory pain (rodent): non-efficacious | inhibition of action potential firing in isolated nerves (isolated nerves): inability

GPSCQKWMQTCDAERKCCEGFVCRLWCKKKLW-OH (cysteine pairing not given here) [NV1D2773]
IC50 (human Nav1.5; human, pH 7.4): > 3 µM

GPQCQKWMQTCDAERKCCEGFVCRLWCKKKLW-OH (cysteine pairing not given here) [NV1D2775]
analgesia, thermal withdrawal latency on day1 post-pump (C57Bl/6 mice [1]): significant analgesia | protection from carrageenan-induced thermal hyperalgesia (C57Bl/6 mice [1]): fully protected | CFA-induced tactile allodynia (C57Bl/6 mice [2]; 1824 μg/day): reversed | time at which effect reached the maximum, tactile test (C57Bl/6 mice [2]; mouse, in vivo): 8 h | time by which tactile threshold returned to control level post pump implantation (C57Bl/6 mice [2]; mouse, in vivo): ≤ 48 h | thermal latencies after peptide administration (C57Bl/6 mice [3]; 1824 μg/day, cut-off 20 s): close to the cut-off | Thermal MPE % (C57Bl/6 mice [3]; 228 μg/day/mouse by subcutaneous osmotic mini-pump): 35 ± 8 (8) % | Thermal MPE % (C57Bl/6 mice [3]; 1824 μg/day/mouse by subcutaneous osmotic mini-pump): 85 ± 6 % | efficacy in the CFA model (C57Bl/6 mice [3]; mouse, in vivo): strong efficacy | time at which anti-hyperalgesic effect was first seen, post-pump implantation (C57Bl/6 mice [3]; mouse, in vivo): 4 h | time at which effect reached the maximum, thermal test (C57Bl/6 mice [3]; mouse, in vivo): 8 h | time by which thermal latency returned to control level post pump implantation (C57Bl/6 mice [3]; mouse, in vivo): ≤ 48 h | selectivity for Nav1.7 compared to recombinant Protoxin-II (human Nav1.6): improved selectivity | hotplate thermal latency compared to the PBS control (C57Bl/6 mice [4]; 228 μg/day): modest yet significant increase | hotplate latencies at 50 and 55° C. (C57Bl/6 mice [4]; 1824 μg/day): near cut-off | efficacy in the hotplate test (C57Bl/6 mice [4]; mouse, in vivo, listed as NV1D2775-OH): strong, dose-dependent efficacy; also recorded: significant analgesia
